Experimental data: PMC8954547, “Nonpeptidic Z360-Analogs Tagged with Trivalent Radiometals as Anti-CCK2R Cancer Theranostic Agents: A Preclinical Study” (Pharmaceutics, 2022)

Tests used:
[1] = system: SCID mice bearing twin HEK293-CCK2i4svR and wtHEK293 tumors; assay: Biodistribution in SCID mice bearing twin HEK293-CCK2i4svR and wtHEK293 xenografts; type: in vivo
Method: Inocula containing a suspension of freshly harvested HEK293-CCK2i4svR/wtHEK293 cells (150 μL, 1.8 × 10^7/1.4 × 10^7 cells, respectively, in normal saline) were subcutaneously (sc) injected in the right and left flanks of male SCID mice (24.5 ± 2.3 g body weight, six weeks of age on arrival day, NCSR “Demokritos” Animal House Facility). Well-palpable tumors (0.42 ± 0.37/0.25 ± […], respectively) were grown at the inoculation site 3–4 weeks later, and biodistribution was conducted. On the day of biodistribution, animals were divided into groups of four and received the radioligand through the tail vein as a bolus (100 μL, containing each of: i. 78–91 kBq [^67Ga]GAS1/2/3 corresponding to 7–17 pmol GAS1/2/3; ii. 74–92 kBq [^111In]GAS1/2/3 corresponding to 20–25 pmol GAS1/2/3; iii. 730 kBq [^177Lu]Lu-GAS1/3 corresponding to 40 pmol GAS1/3, in-vehicle: saline/EtOH 9/1 v/v). Animals were euthanized at predetermined time intervals depending upon the radionuclide applied (for [^67Ga]Ga-GAS1/2/3: 1, 4 and 24 h pi; for [^111In]In-GAS1/2/3: 4 and 24 h pi–two extra groups of mice receiving gelofusine together with [^111In]In-GAS1/2 at 4 and 24 h pi were included; and for [^177Lu]Lu-GAS1/3: 4, 24, 48, 72 and 96 h pi). Mice were dissected, and blood samples, organs of interest and tumors were rapidly collected, weighted and counted in the gamma counter. Biodistribution data was calculated as the percentage of the administered dose per gram tissue (%IA/g) with the aid of suitable standards of the administered dose and the Microsoft Excel program. Results are presented as mean % IA/g values ± SD, n = 4 per time point, as determined by the PRISM^TM 6.0 GraphPad software (San Diego, CA, USA).

[2] = Radioligand stability in mice (radio-HPLC of blood and urine); type: in vivo; conditions: mean ± SD
Method: The formation of radiometabolites which can be detected in the blood was tested in blood samples collected 5 min post-injection (pi) of each of the radioligands [^67Ga]Ga/[^111In]In/[^177Lu]Lu-GAS1/3 and [^67Ga]Ga/[^111In]In-GAS2. For this study, in-house male Swiss albino mice (body weight: 30 ± 5 g, provided by the NCSR “Demokritos” Animal House) were used in groups of three. The animals received, through the tail vein, a 100-μL bolus containing each radioligand tested (2.5–3 nmol of the total conjugate in vehicle: saline/EtOH 9/1 v/v, corresponding to: up to 11 MBq for In-111, up to 13 MBq for Ga-67 and up to 74 MBq for Lu-177). Mice were euthanized, and blood was collected directly from the heart using a prechilled penicillin syringe and transferred in a prechilled EDTA-containing Eppendorf Protein LoBind® tube on ice (40 µL, 50 mM Na2EDTA solution). After centrifugation (10 min, 2000× g/4 °C, in a Hettich, Universal 320R, centrifuge), the blood plasma was collected, mixed with chilled MeCN in a 1/1 v/v ratio and centrifuged again (10 min, 15,000× g/4 °C). Supernatants were collected and concentrated to a small volume (≈50–100 μL) under a gentle N2-flux at 40 °C. They were then diluted with physiological saline (≈400 μL) and filtered through a Millex GV filter (0.22 μm, 13 mm Ø, Millipore, Milford, CT, USA). Aliquots of the filtrate were analyzed by radio-RP-HPLC using a Waters Symmetry Shield RP18 cartridge column (5 μm, 3.9 mm × 20 mm) eluted at a flow rate of 1.0 mL/min with the following gradient: 100% A/0% B to 55% A/45% B in 45 min; A = 0.1% aqueous TFA (v/v) and B = MeCN (system 2). The elution time (tR) of each parent radioligand was determined by coinjection of blood samples with an aliquot of the labeling solution on the HPLC column. Results were calculated as the average percentage of intact radioligand ± SD derived from three independent experiments.
Following the same injection protocol, radioligands were administered in additional groups of mice, but this time animals were euthanized 30 min pi. The urine was immediately collected from the bladder using a prechilled syringe and transferred as before in a prechilled EDTA-containing Eppendorf Protein LoBind® centrifuge tube on ice (40 µL, 50 mM Na2EDTA solution) and 0.1 mL of physiological saline. Urine proteins were precipitated by adding chilled MeCN in a 1/1 v/v ratio followed by a 10 min centrifugation step (15,000× g/4 °C). The supernatant was then collected and treated following the blood sample workup procedure. Aliquots of the Millex-GV filtrate (containing >90% of total urine activity) were analyzed by radio-HPLC, adopting the aforementioned conditions. Results were calculated as the average percentage of intact radioligand ± SD derived from three independent experiments.

## CC(C)(C)C(=O)CN1C(=O)[C@H](NC(=O)Nc2cccc(C(=O)NCCOCCOCCOCCNC(=O)[C@H](CCC(=O)O)NC(=O)CN3CCN(CC(=O)[O-])CCN(CC(=O)[O-])CCN(CC(=O)[O-])CC3)c2)CN(C2CCCCC2)c2ccccc21.[177Lu+3] (stereo in doubt) [[^177Lu]Lu-GAS1]
[1]; 4 h pi
  Biodistribution, Blood: 0.99 ± 0.20 %IA/g
  Biodistribution, CCK2i4svR(+) Tumor: 8.74 ± 1.60 %IA/g
  Biodistribution, CCK2i4svR(-) Tumor: 1.01 ± 0.30 %IA/g
  Biodistribution, Femur: 0.28 ± 0.03 %IA/g
  Biodistribution, Heart: 0.41 ± 0.07 %IA/g
  Biodistribution, Intestines: 1.65 ± 0.28 %IA/g
  Biodistribution, Kidneys: 3.70 ± 0.62 %IA/g
  Biodistribution, Liver: 2.21 ± 0.44 %IA/g
  Biodistribution, Lungs: 0.94 ± 0.15 %IA/g
  Biodistribution, Muscle: 0.12 ± 0.02 %IA/g
  Biodistribution, Pancreas: 0.56 ± 0.11 %IA/g
  Biodistribution, Spleen: 0.59 ± 0.07 %IA/g
  Biodistribution, Stomach: 0.37 ± 0.05 %IA/g
[1]; 24 h pi
  Biodistribution, Blood: 0.06 ± 0.00 %IA/g
  Biodistribution, CCK2i4svR(+) Tumor: 2.09 ± 0.50 %IA/g
  Biodistribution, CCK2i4svR(-) Tumor: 0.29 ± 0.20 %IA/g
  Biodistribution, Femur: 0.11 ± 0.01 %IA/g
  Biodistribution, Heart: 0.12 ± 0.00 %IA/g
  Biodistribution, Intestines: 0.32 ± 0.07 %IA/g
  Biodistribution, Kidneys: 1.05 ± 0.12 %IA/g
  Biodistribution, Liver: 0.51 ± 0.07 %IA/g
  Biodistribution, Lungs: 0.34 ± 0.03 %IA/g
  Biodistribution, Muscle: 0.04 ± 0.00 %IA/g
  Biodistribution, Pancreas: 0.10 ± 0.01 %IA/g
  Biodistribution, Spleen: 0.32 ± 0.01 %IA/g
  Biodistribution, Stomach: 0.14 ± 0.03 %IA/g
[1]; 48 h pi
  Biodistribution, Blood: 0.04 ± 0.01 %IA/g
  Biodistribution, CCK2i4svR(+) Tumor: 0.97 ± 0.20 %IA/g
  Biodistribution, CCK2i4svR(-) Tumor: 0.17 ± 0.02 %IA/g
  Biodistribution, Femur: 0.09 ± 0.01 %IA/g
  Biodistribution, Heart: 0.07 ± 0.01 %IA/g
  Biodistribution, Intestines: 0.08 ± 0.01 %IA/g
  Biodistribution, Kidneys: 0.38 ± 0.07 %IA/g
  Biodistribution, Liver: 0.32 ± 0.04 %IA/g
  Biodistribution, Lungs: 0.29 ± 0.04 %IA/g
  Biodistribution, Muscle: 0.03 ± 0.00 %IA/g
  Biodistribution, Pancreas: 0.05 ± 0.01 %IA/g
  Biodistribution, Spleen: 0.26 ± 0.06 %IA/g
  Biodistribution, Stomach: 0.08 ± 0.01 %IA/g
[1]; 72 h pi
  Biodistribution, Blood: 0.04 ± 0.00 %IA/g
  Biodistribution, CCK2i4svR(+) Tumor: 0.35 ± 0.23 %IA/g
  Biodistribution, CCK2i4svR(-) Tumor: 0.18 ± 0.05 %IA/g
  Biodistribution, Femur: 0.06 ± 0.00 %IA/g
  Biodistribution, Heart: 0.05 ± 0.01 %IA/g
  Biodistribution, Intestines: 0.06 ± 0.02 %IA/g
  Biodistribution, Kidneys: 0.14 ± 0.04 %IA/g
  Biodistribution, Liver: 0.23 ± 0.02 %IA/g
  Biodistribution, Lungs: 0.21 ± 0.03 %IA/g
  Biodistribution, Muscle: 0.02 ± 0.00 %IA/g
  Biodistribution, Pancreas: 0.03 ± 0.00 %IA/g
  Biodistribution, Spleen: 0.51 ± 0.71 %IA/g
  Biodistribution, Stomach: 0.05 ± 0.01 %IA/g
[1]; 96 h pi
  Biodistribution, Blood: 0.04 ± 0.00 %IA/g
  Biodistribution, CCK2i4svR(+) Tumor: 0.56 ± 0.25 %IA/g
  Biodistribution, CCK2i4svR(-) Tumor: 0.11 ± 0.04 %IA/g
  Biodistribution, Femur: 0.05 ± 0.01 %IA/g
  Biodistribution, Heart: 0.04 ± 0.00 %IA/g
  Biodistribution, Intestines: 0.08 ± 0.05 %IA/g
  Biodistribution, Kidneys: 0.10 ± 0.04 %IA/g
  Biodistribution, Liver: 0.19 ± 0.02 %IA/g
  Biodistribution, Lungs: 0.17 ± 0.02 %IA/g
  Biodistribution, Muscle: 0.02 ± 0.01 %IA/g
  Biodistribution, Pancreas: 0.03 ± 0.01 %IA/g
  Biodistribution, Spleen: 0.14 ± 0.02 %IA/g
  Biodistribution, Stomach: 0.05 ± 0.01 %IA/g
[1]; mouse, in vivo
  Background clearance / excretion route: rapid background clearance predominantly via the kidneys
[2]; mice blood collected 5 min pi
  Intact radioligand in blood: 81.1 ± 8.2 (3) %
[2]; mice urine collected 30 min pi
  Intact radioligand in urine: 79.2 ± 10.3 (3) %
